PubChem BioAssay (NCI)
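In this assay, cells in 96-well plates receive the compound at five concentrations for 48 hours. Endpoints are linearly interpolated between the surrounding concentrations. GI50: concentration for 50% inhibition of growth. TGI: concentration producing complete growth inhibition.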

Legend:
Experiment in all cases: NCI anticancer screen, dose series, 48 h
[1] = test system: SK-OV-3 ovarian
[2] = test system: LOX IMVI melanoma
[3] = test system: K-562 leukemia
[4] = test system: HOP-62 NSCLC
[5] = test system: NCI-H460 lung
[6] = test system: HCT-116 colon
[7] = test system: COLO 205 colon
[8] = test system: HOP-92 NSCLC
[9] = test system: MALME-3M melanoma
[10] = test system: DU-145 prostate

CC1=C(CCCOC(=O)[C@H](N)CC(C)C)C2=C(C)C3(CC3)[C@@](C)(O)C(=O)C2=C1
GI50 [1]: 0.752 µM
TGI [1]: 3.03 µM
GI50 [2]: 2.42 µM
TGI [2]: 8.9 µM
GI50 [3]: 34.3 µM
TGI [3]: > 100 µM
GI50 [4]: 1.61 µM
TGI [4]: 5.42 µM
GI50 [5]: 0.375 µM
TGI [5]: 11.1 µM
GI50 [6]: 1.7 µM
TGI [6]: 5.91 µM
GI50 [7]: 1.49 µM
TGI [7]: 3.42 µM
GI50 [8]: 0.759 µM
TGI [8]: 3.33 µM
GI50 [9]: 1.44 µM
TGI [9]: 3.31 µM
GI50 [10]: 0.392 µM
TGI [10]: > 100 µM

C[C@@H]1CN2[C@H]3[C@@H]1CC[C@]31CCC(=O)O[C@]1(C)[C@H]1CC[C@H]3CCC=C3[C@@H]12
GI50 [1]: > 30 µM
TGI [1]: > 30 µM
GI50 [2]: > 30 µM
TGI [2]: > 30 µM
GI50 [3]: > 30 µM
TGI [3]: > 30 µM
GI50 [4]: > 30 µM
TGI [4]: > 30 µM
GI50 [5]: > 30 µM
TGI [5]: > 30 µM
GI50 [6]: > 30 µM
TGI [6]: > 30 µM
GI50 [7]: > 30 µM
TGI [7]: > 30 µM
GI50 [8]: > 30 µM
TGI [8]: > 30 µM
GI50 [9]: > 30 µM
TGI [9]: > 30 µM
GI50 [10]: > 30 µM
TGI [10]: > 30 µM

ClC1=C(Cl)C(Cl)(C2(Cl)C(Cl)=C(Cl)C(Cl)=C2Cl)C(Cl)=C1Cl
GI50 [1]: 2.26 µM
TGI [1]: 4.54 µM
GI50 [2]: 0.206 µM
TGI [2]: 0.487 µM
GI50 [3]: 0.226 µM
TGI [3]: > 100 µM
GI50 [4]: 2.21 µM
TGI [4]: 4.56 µM
GI50 [5]: 1.89 µM
TGI [5]: 3.8 µM
GI50 [6]: 0.189 µM
TGI [6]: 0.439 µM
GI50 [7]: 0.202 µM
TGI [7]: 0.462 µM
GI50 [8]: 0.175 µM
TGI [8]: 0.437 µM
GI50 [9]: 0.188 µM
TGI [9]: 0.446 µM
GI50 [10]: 0.633 µM
TGI [10]: 1.99 µM

O=C(N/N=C/c1ccc(Cl)cc1)c1ccc(NC(=O)c2ccccn2)cc1
GI50 [1]: 31 µM
TGI [1]: > 100 µM
GI50 [2]: 56.1 µM
TGI [2]: > 100 µM
GI50 [3]: > 100 µM
TGI [3]: > 100 µM
GI50 [4]: 18.2 µM
TGI [4]: 91.3 µM
GI50 [5]: 8.2 µM
TGI [5]: 24.6 µM
GI50 [6]: 11.8 µM
TGI [6]: > 100 µM
GI50 [7]: > 100 µM
TGI [7]: > 100 µM
GI50 [8]: 5.23 µM
TGI [8]: 53.2 µM
GI50 [9]: 33.1 µM
TGI [9]: > 100 µM
GI50 [10]: 27.2 µM
TGI [10]: > 100 µM
